# The supplement of paper PMC10307832
# Legend:
# Experiment in all cases: relative viability (nuclei count vs DMSO), 5 days (fraction); higher = more cells survive
# [1] = tested on: PC-14
# Procedure, shortened: (§1)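 One day after seeding in 1536-well plates, lung cancer cell lines were dosed by pin tool. Dosing was either single-drug or a fixed anchor-drug dose plus five library-drug doses (not always all listed) in √10 steps. After 5 days, nuclei were stained in one fix-and-stain step and counted on 4× images, and relative viability is the nuclei count of treated wells over that of vehicle wells, given as the median of duplicate plates.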
# [2] = tested on: NCI-H1355
# Procedure, shortened: as §1
# [3] = tested on: A-427
# Procedure, shortened: as §1
# [4] = tested on: NCI-H2087
# Procedure, shortened: as §1
# [5] = tested on: PC-3 [JPC-3]
# Procedure, shortened: as §1
# [6] = tested on: NCI-H1792
# Procedure, shortened: as §1
# [7] = tested on: NCI-H322M
# Procedure, shortened: as §1
# [8] = tested on: NCI-H1666
# Procedure, shortened: as §1
# [9] = tested on: LCLC-97TM1
# Procedure, shortened: as §1
# [10] = tested on: NCI-H1915
# Procedure, shortened: as §1
# [11] = tested on: NCI-H1651
# Procedure, shortened: as §1
# [12] = tested on: NCI-H2085
# Procedure, shortened: as §1
# [13] = tested on: H3255
# Procedure, shortened: as §1
# [14] = tested on: ABC-1
# Procedure, shortened: as §1
# [15] = tested on: NCI-H661
# Procedure, shortened: as §1
# [16] = tested on: CAL-12T
# Procedure, shortened: as §1
# [17] = tested on: NCI-H2228
# Procedure, shortened: as §1
# [18] = tested on: NCI-H838
# Procedure, shortened: as §1
# [19] = tested on: UMC-11
# Procedure, shortened: as §1
structure (smiles),measurement,setting,value
O=C(O)CCCCC(CCSCc1ccccc1)SCc1ccccc1 (stereo not given) [CPI-613] + CC(C)C[C@H](NC(=O)[C@H](Cc1ccccc1)NC(=O)c1cnccn1)B(O)O [Bortezomib] (partner 0.002 µM),relative viability,[1]; first compound 5 µM,0.989
same,relative viability,[1]; first compound 15.81 µM,0.855
same,relative viability,[1]; first compound 50 µM,0.839
same,relative viability,[1]; first compound 158.11 µM,0.893
same,relative viability,[1]; first compound 500 µM,0.339
same,relative viability,[2]; first compound 5 µM,1.2
same,relative viability,[2]; first compound 15.81 µM,1.22
same,relative viability,[2]; first compound 50 µM,1.23
same,relative viability,[2]; first compound 158.11 µM,0.646
same,relative viability,[2]; first compound 500 µM,0.611
same,relative viability,[3]; first compound 5 µM,0.939
same,relative viability,[3]; first compound 15.81 µM,0.901
same,relative viability,[3]; first compound 50 µM,0.96
same,relative viability,[3]; first compound 158.11 µM,0.761
same,relative viability,[3]; first compound 500 µM,0.253
same,relative viability,[4]; first compound 5 µM,0.838
same,relative viability,[4]; first compound 15.81 µM,0.725
same,relative viability,[4]; first compound 50 µM,0.827
same,relative viability,[4]; first compound 158.11 µM,0.33
same,relative viability,[4]; first compound 500 µM,0.016
same,relative viability,[5]; first compound 5 µM,0.83
same,relative viability,[5]; first compound 15.81 µM,0.695
same,relative viability,[5]; first compound 50 µM,0.755
same,relative viability,[5]; first compound 158.11 µM,0.451
same,relative viability,[5]; first compound 500 µM,0.452
same,relative viability,[6]; first compound 5 µM,0.889
same,relative viability,[6]; first compound 15.81 µM,0.886
same,relative viability,[6]; first compound 50 µM,0.996
same,relative viability,[6]; first compound 158.11 µM,0.836
same,relative viability,[6]; first compound 500 µM,0.893
same,relative viability,[7]; first compound 5 µM,1.19
same,relative viability,[7]; first compound 15.81 µM,1.2
same,relative viability,[7]; first compound 50 µM,1.27
same,relative viability,[7]; first compound 158.11 µM,1.31
same,relative viability,[7]; first compound 500 µM,0.908
same,relative viability,[8]; first compound 5 µM,0.883
same,relative viability,[8]; first compound 15.81 µM,0.603
same,relative viability,[8]; first compound 50 µM,0.757
same,relative viability,[8]; first compound 158.11 µM,0.175
same,relative viability,[8]; first compound 500 µM,0.0891
same,relative viability,[9]; first compound 5 µM,0.728
same,relative viability,[9]; first compound 15.81 µM,0.276
same,relative viability,[9]; first compound 50 µM,0.583
same,relative viability,[9]; first compound 158.11 µM,0.532
same,relative viability,[9]; first compound 500 µM,0.819
same,relative viability,[10]; first compound 5 µM,0.992
same,relative viability,[10]; first compound 15.81 µM,0.99
same,relative viability,[10]; first compound 50 µM,0.946
same,relative viability,[10]; first compound 158.11 µM,0.799
same,relative viability,[10]; first compound 500 µM,0.746
same,relative viability,[11]; first compound 5 µM,0.91
same,relative viability,[11]; first compound 15.81 µM,0.9
same,relative viability,[11]; first compound 50 µM,0.866
same,relative viability,[11]; first compound 158.11 µM,0.914
same,relative viability,[11]; first compound 500 µM,1
same,relative viability,[12]; first compound 5 µM,0.984
same,relative viability,[12]; first compound 15.81 µM,0.847
same,relative viability,[12]; first compound 50 µM,0.995
same,relative viability,[12]; first compound 158.11 µM,0.873
same,relative viability,[12]; first compound 500 µM,0.194
same,relative viability,[13]; first compound 5 µM,0.815
same,relative viability,[13]; first compound 15.81 µM,0.719
same,relative viability,[13]; first compound 50 µM,0.781
same,relative viability,[13]; first compound 158.11 µM,0.734
same,relative viability,[13]; first compound 500 µM,0.736
same,relative viability,[14]; first compound 5 µM,0.305
same,relative viability,[14]; first compound 15.81 µM,0.298
same,relative viability,[14]; first compound 50 µM,0.302
same,relative viability,[14]; first compound 158.11 µM,0.232
same,relative viability,[14]; first compound 500 µM,0.242
same,relative viability,[15]; first compound 5 µM,0.749
same,relative viability,[15]; first compound 15.81 µM,0.66
same,relative viability,[15]; first compound 50 µM,0.85
same,relative viability,[15]; first compound 158.11 µM,0.709
same,relative viability,[15]; first compound 500 µM,0.709
same,relative viability,[16]; first compound 5 µM,0.866
same,relative viability,[16]; first compound 15.81 µM,0.774
same,relative viability,[16]; first compound 50 µM,0.758
same,relative viability,[16]; first compound 158.11 µM,0.498
same,relative viability,[16]; first compound 500 µM,0.277
same,relative viability,[17]; first compound 5 µM,0.918
same,relative viability,[17]; first compound 15.81 µM,1.04
same,relative viability,[17]; first compound 50 µM,1.07
same,relative viability,[17]; first compound 158.11 µM,0.217
same,relative viability,[17]; first compound 500 µM,0.0287
same,relative viability,[18]; first compound 5 µM,0.867
same,relative viability,[18]; first compound 15.81 µM,0.702
same,relative viability,[18]; first compound 50 µM,1.02
same,relative viability,[18]; first compound 158.11 µM,0.425
same,relative viability,[18]; first compound 500 µM,0.0658
same,relative viability,[19]; first compound 5 µM,0.703
same,relative viability,[19]; first compound 15.81 µM,0.496
same,relative viability,[19]; first compound 50 µM,0.692
same,relative viability,[19]; first compound 158.11 µM,0.641
same,relative viability,[19]; first compound 500 µM,0.0673
